Assay results reported in patent US20200345701A1, “USE OF STATINS IN OVERCOMING RESISTANCE TO BETA-LACTAM ANTIBIOTICS IN BACTERIAL SPECIES SYNTHETIZING ISOPRENOIDS USING THE MEVALONATE SYNTHETIC PATHWAY” (CONSEJO SUPERIOR DE INVESTIGACIONES CIENTIFICAS (CSIC), priority 2017, published 2020).
Entries after “also recorded” stand apart in the source; their conditions may differ.

Experiments:
S. aureus = assay: Growth curves of S. aureus cultures at different ZA concentrations; format: cell-based, Staphylococcus aureus; conditions: ZA 50 μM; TSB medium, 36 h, 37° C.
[1] = test system: Staphylococcus aureus MRSA strain USA300; assay: In vitro MRSA cell growth inhibition (bacterial count CFU/ml), statin or ZA with oxacillin; format: cell-based; conditions: for MRSA growth (CFU/ml) with oxacillin plus compound: combination with the β-lactam antibiotic oxacillin
FloA membrane foci = FloA membrane foci count by fluorescence microscopy; format: cell-based, Staphylococcus aureus; conditions: ZA 50 μM
Procedure: Cells from liquid cultures were washed in PBS and resuspended in 0.5 ml 4% paraformaldehyde (6 min, room temperature). Samples were washed twice and resuspended in 0.5 ml PBS. Images were acquired on a Leica DMI6000B microscope equipped with a CRT6000 illumination system, with a HCX PL APO oil immersion objective (100×1.47) and a color camera DFC630FX. Leica Application Suite Advanced Fluorescence
Software was used for linear image processing. The YFP signal was detected (excitation filter 489 nm, emission filter 508 nm). Excitation times were 567 msec. Transmitted light images were taken with 55 msec excitation time.

PBP2a = format: cell-based; conditions: ZA-treated MRSA cells; bands at ~80 kDa
MRSA = format: cell-based, Staphylococcus aureus; conditions: β-lactam antibiotics; treated versus untreated MRSA
FloA and PBP2a = FloA and PBP2a oligomerization by sucrose gradient centrifugation; conditions: membrane fraction of ZA-treated versus untreated cells
Procedure: FloA oligomerization in S. aureus WT and Δcrt mutant and PBP2a oligomerization were analyzed in sucrose gradient assays. S. aureus cultures were harvested and cells crosslinked with 0.5 mM DSP (dithiobis(succinimidyl propionate)) before cell lysis and membrane fraction purification. Purified membrane fractions (200 μg) solubilized with 0.5% DDM were layered on a 5-40% linear sucrose gradient generated by a Biocomp gradient maker, then centrifuged (Beckman; 100,000 g, 16 h, 4° C.). Fractions (1 ml) were collected from the bottom of the gradient and proteins associated with each fraction were precipitated with 10% trichloroacetic acid (TCA). Protein fractions were dried and resuspended in PBS prior to immunoblot analyses.

MRSA ΔfloA mutant [2] = assay: β-lactam antibiotic sensitivity of MRSA ΔfloA mutant versus WT; format: cell-based, Staphylococcus aureus; conditions: antibiotic concentrations that typically inhibit MSSA growth
MRSA ΔfloA mutant [3] = conditions: mice infected with ΔfloA mutant, 3×10^7 CFU; oxacillin 200 mg/kg/day; three days post-infection
Procedure: (§1) Female BALB/c mice (8-10 weeks old, 16-19 g weight) were purchased (Charles River Laboratories), Mice were housed in polypropylene cages in standardized lighting conditions and had ad libitum access to food and water.
(§2) The S. aureus strains were cultured on BHI medium (18 h, 37° C.). Cells were collected, washed three times with PBS and diluted to OD600 nm=0.05. Viable cell counts were determined by plating inoculum dilutions on TSB agar plates. For survival experiments, cohorts of 10 mice were infected with 150 μl of S. aureus cultures (3×10^7 cells) via intravenous injection. Each strain was used to infect one mouse cohort. Doses of oxacillin (200 mg/kg) alone or in combination with ZA (50 mg/Kg or 20 mg/Kg) were injected intraperitoneally (i.p.) daily for 1-4 days. […] The first dose was administered 30 min after the bacterial inoculation. Infections were allowed to progress until severe infection signs occurred or to a 3-day endpoint. Mice were sacrificed when they met the following criteria: 1) loss of at least 20% body weight, 2) loss of at least 15% body weight and ruffled fur, 3) loss of at least 10% body weight and hunched posture, or 4) 4 days post-infection.

MRSA WT strain = assay: Murine infection model, survival, WT strain; conditions: mice infected with WT, 3×10^7 CFU; oxacillin 200 mg/kg/day; three days post-infection
Procedure: as §1, §2

ΔMAR flotillin variant [4] = format: binding, Staphylococcus aureus
ΔEA4 flotillin variant [5] = format: binding, Staphylococcus aureus
ΔPHB flotillin variant [6] = format: binding, Staphylococcus aureus
FloA (WT flotillin) = FloA (WT flotillin) (Staphylococcus aureus, UniProt Q99TS3); format: binding; conditions: purified WT FloA; sucrose gradient, FloA immunodetection in lipid fraction
FloA (WT flotillin), sequence (Q99TS3 whole entry, looked up): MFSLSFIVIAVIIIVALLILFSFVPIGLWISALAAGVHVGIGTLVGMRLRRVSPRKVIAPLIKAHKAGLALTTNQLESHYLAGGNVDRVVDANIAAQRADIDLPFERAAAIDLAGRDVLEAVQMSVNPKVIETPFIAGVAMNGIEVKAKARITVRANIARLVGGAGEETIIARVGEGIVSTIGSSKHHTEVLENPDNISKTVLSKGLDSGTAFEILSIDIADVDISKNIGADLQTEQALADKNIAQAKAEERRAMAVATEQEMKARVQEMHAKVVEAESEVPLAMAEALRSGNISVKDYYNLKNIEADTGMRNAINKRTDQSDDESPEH

ΔMAR flotillin variant [7] = format: binding, Staphylococcus aureus; remark: listed apart in the source
ΔEA4 flotillin variant [8] = format: binding, Staphylococcus aureus; remark: listed apart in the source
ΔPHB flotillin variant [9] = format: binding, Staphylococcus aureus; remark: listed apart in the source

SMILES: C=C(CC[C@]12O[C@H](C(=O)O)[C@@](O)(C(=O)O)[C@](C(=O)O)(O1)[C@H](OC(=O)/C=C/[C@@H](C)C[C@@H](C)CC)[C@H]2O)[C@@H](OC(C)=O)[C@H](C)Cc1ccccc1 [ZA, Zaragozic acid]
- S. aureus growth (S. aureus): no growth defects; also recorded: did not affect
- effect of increasing compound concentration on antibiotic effect of oxacillin ([1]; MRSA cultures, combination with oxacillin): potentiated the antibiotic effect of oxacillin
- MRSA growth (CFU/ml) with oxacillin plus compound [1]: inhibited
- MRSA growth (CFU/ml) in the presence of compound alone ([1]; without oxacillin): unaltered
- number of FloA membrane foci (FloA membrane foci): reduced
- PBP2a oligomerization (BN-PAGE) (PBP2a): deficient PBP2a oligomerization
- antibiotic sensitivity profile of treated MRSA cultures (MRSA): resembled those of the ΔfloA mutant
- oligomerization of flotillin and PBP2a (sucrose gradient) (FloA and PBP2a): reduced oligomerization of flotillin and PBP2a

SMILES: Cc1onc(-c2ccccc2)c1C(=O)N[C@@H]1C(=O)N2[C@@H]1SC(C)(C)[C@@H]2C(=O)O [oxacillin]
- growth / resistance of ΔfloA compared to WT in presence of β-lactam antibiotic (MRSA ΔfloA mutant [2]): severe growth inhibition
- survival rate (MRSA ΔfloA mutant [3]): 70%
- survival rate (MRSA WT strain): 10%

SMILES: Cc1onc(-c2c(F)cccc2Cl)c1C(=O)N[C@@H]1C(=O)N2[C@@H]1SC(C)(C)[C@@H]2C(=O)O [flucoxacillin]
- growth / resistance of ΔfloA compared to WT in presence of β-lactam antibiotic (MRSA ΔfloA mutant [2]): severe growth inhibition

SMILES: Cc1onc(-c2c(Cl)cccc2Cl)c1C(=O)N[C@@H]1C(=O)N2[C@@H]1SC(C)(C)[C@@H]2C(=O)O [dicloxacillin]
- growth / resistance of ΔfloA compared to WT in presence of β-lactam antibiotic (MRSA ΔfloA mutant [2]): severe growth inhibition

SMILES: CC1(C)S[C@@H]2[C@H](NC(=O)[C@H](N)c3ccccc3)C(=O)N2[C@H]1C(=O)O [ampicillin]
- growth / resistance of ΔfloA compared to WT in presence of β-lactam antibiotic (MRSA ΔfloA mutant [2]): comparable resistance

SMILES: CCOc1ccc2ccccc2c1C(=O)N[C@@H]1C(=O)N2[C@@H]1SC(C)(C)[C@@H]2C(=O)O [nafcillin]
- growth / resistance of ΔfloA compared to WT in presence of β-lactam antibiotic (MRSA ΔfloA mutant [2]): severe growth inhibition

SMILES: CC(C)c1c(C(=O)Nc2ccccc2)c(-c2ccccc2)c(-c2ccc(F)cc2)n1CC[C@@H](O)C[C@@H](O)CC(=O)O [atorvastatin]
- MRSA growth (CFU/ml) with oxacillin plus compound [1]: did not alter the MRSA antibiotic-resistant phenotype

SMILES: CCC(C)CCCCCCCCCCC(=O)OC[C@H]1O[C@@H](OC(=O)/C(C)=C/C=C/C(C)=C/C=C/C(C)=C/C=C/C=C(C)/C=C/C=C(\C)CCC=C(C)C)[C@H](O)[C@@H](O)[C@@H]1O (stereo partly drawn) [staphyloxanthin]
- Kd (ΔMAR flotillin variant [4]): 12 nM
- Kd (ΔEA4 flotillin variant [5]): 9.43 nM
- Kd (ΔPHB flotillin variant [6]): 943 nM
- lipid-protein interaction in flotation assay (FloA (WT flotillin)): interacted strongly
- lipid-protein interaction in flotation assay (ΔMAR flotillin variant [7]): interacted strongly
- lipid-protein interaction in flotation assay (ΔEA4 flotillin variant [8]): interacted strongly
- lipid-protein interaction in flotation assay (ΔPHB flotillin variant [9]): showed no tendency to interact

SMILES: COc1cccc(OC)c1C(=O)N[C@@H]1C(=O)N2[C@@H]1SC(C)(C)[C@@H]2C(=O)O [methicillin]
- growth / resistance of ΔfloA compared to WT in presence of β-lactam antibiotic (MRSA ΔfloA mutant [2]): severe growth inhibition
